Results as given in ChEMBL document CHEMBL5325443, “Discovery and structure-activity relationship of Morita-Baylis-Hillman adducts as larvicides against dengue mosquito vector, Aedes aegypti (Diptera: Culicidae)” (2023).
Values after ≈ are worked out from the molar mass of the structure shown. Active and inactive are the calls of the source. No cut-off for these calls is given here.

What was measured:
[1] = test system: Aedes aegypti; experiment: Larvicidal activity against fourth instar Aedes aegypti larvae assessed as lethal concentration measured after 48 hrs; type: functional
[2] = test system: Aedes aegypti; experiment: Larvicidal activity against fourth instar Aedes aegypti larvae assessed as mortality rate at 100 ug/ml measured after 48 hrs relative to control; type: functional
[3] = test system: Aedes aegypti; experiment: Induction of morphological changes in fourth instar Aedes aegypti larvae assessed as loss in anal papillae at LC50 concentration measured after 48 hrs by scanning electron microscopic analysis; type: functional, organism-based
[4] = test system: Aedes aegypti; experiment: Induction of morphological changes in fourth instar Aedes aegypti larvae assessed as damage in thorax at LC50 concentration measured after 48 hrs by scanning electron microscopic analysis; type: functional
[5] = test system: Aedes aegypti; experiment: Induction of morphological changes in fourth instar Aedes aegypti larvae assessed as modification in terminal abdomen in 6th to 8th segment at LC50 concentration measured after 48 hrs by scanning electron microscopic analysis; type: functional, organism-based

| SMILES | LC50 [1] | mortality at 100 µg/mL [2] | other results |
| --- | --- | --- | --- |
| CC[C@H]1CCC[C@H](O[C@H]2CC[C@H](NC)[C@@H](C)O2)[C@@H](C)C(=O)C2=C[C@@H]3[C@@H](C=C[C@@H]4C[C@@H](O[C@@H]5O[C@@H](C)[C@H](OC)[C@@H](OC)[C@H]5OC)C[C@@H]34)[C@@H]2CC(=O)O1 | 0.02 µg/mL (≈ 0.0279 µM) |  |  |
| COP(=S)(OC)Oc1ccc(Sc2ccc(OP(=S)(OC)OC)cc2)cc1 [TEMEFOS] | 4.25 µg/mL (≈ 9.11 µM) |  |  |
| C=C(C(=O)OC)C(O)c1ccc(Br)cc1 (stereo not given) |  | 51.7% |  |
| CC[C@H]1CCC[C@H](O[C@H]2CC[C@H](N(C)C)[C@@H](C)O2)[C@@H](C)C(=O)C2=C[C@@H]3[C@@H](C=C[C@@H]4C[C@@H](O[C@@H]5O[C@@H](C)[C@H](OC)[C@@H](OC)[C@H]5OC)C[C@@H]34)[C@@H]2CC(=O)O1 [SPINOSYN A] | 0.02 µg/mL (≈ 0.0273 µM) |  |  |
| C=C(C(=O)OC)C(O)c1ccccc1Cl (stereo not given) |  | 21.7% |  |
| C=C(C(=O)OCC)C(O)c1nccs1 (stereo not given) |  | 10% |  |
| C=C(C(=O)OCC)C(O)c1ccc(OC)cc1 (stereo not given) |  | 21.7% |  |
| C=C(C(=O)OC)C(O)c1ccc(C)cc1 (stereo not given) |  | 10% |  |
| C=C(C(=O)OC)C(O)c1ccc(-c2ccccc2)cc1 (stereo not given) | 41.4 µg/mL (≈ 154 µM) | 93.3% | Activity [3]: Active; Activity [4]: 100%; Activity [5]: Active |
| C=C(C(=O)OC)C(O)c1cc(OC)c(OC)c(OC)c1 (stereo not given) |  | 16.7% |  |
| C=C(C(=O)OCC)C(O)c1ccc([N+](=O)[O-])cc1 (stereo not given) |  | 16.7% |  |
| C=C(C(=O)OC)C(O)/C=C/c1ccccc1 (stereo not given) |  | 71.7% |  |
| C=C(C(=O)OC)C(O)c1ccc2ccccc2c1 (stereo not given) | 77.7 µg/mL (≈ 321 µM) | 88.3% |  |
| C=C(C(=O)OCC)C(O)c1ccccc1Cl (stereo not given) | 86.7 µg/mL (≈ 360 µM) | 85% |  |
| C=C(C(=O)OC)C(O)c1ccc(Cl)cc1 (stereo not given) | 88.2 µg/mL (≈ 389 µM) | 81.7% |  |
| C=C(C(=O)OC)C(O)c1ccc(F)cc1 (stereo not given) |  | 16.7% |  |
| CC[C@H]1CCC[C@H](O[C@H]2CC[C@H](N(C)C)[C@@H](C)O2)[C@@H](C)C(=O)C2=C[C@@H]3[C@@H](C=C(C)[C@@H]4C[C@@H](O[C@@H]5O[C@@H](C)[C@H](OC)[C@@H](OC)[C@H]5OC)C[C@@H]34)[C@@H]2CC(=O)O1 [SPINOSYN D] | 0.02 µg/mL (≈ 0.0268 µM) |  |  |
| CC(COc1ccc(Oc2ccccc2)cc1)Oc1ccccn1 (stereo not given) [PYRIPROXYFEN] | 1.75 µg/mL (≈ 5.45 µM) |  |  |
